What is called IC50 is the concentration that inhibits the measured activity by half. A high value points to lower potency.

This experiment deals with Dihydroorotate dehydrogenase (quinone), mitochondrial (Homo sapiens, UniProt Q02127). Briefly: DHODH enzymatic assay. The method, then: To detect DHODH enzyme activities, dichloroindophenol (DCIP) is added as the final electron acceptor in the assay. DCIP can accept electrons from the reduced coenzyme Q generated in the assay, or from dihydroorotate (DHO) via FMN by binding presumably to the ubiquinone pocket. […] The assay buffer contained […], pH 7.5, 150 mM NaCl, 0.5 mM EDTA, and 0.1% Triton X-100 in MilliQ water. Substrate consisting of 20 mM DHO, 5mM CoQ6, and 1mM DCIP in assay buffer, initiates the reaction. […] Absorbance measurements were obtained using the BMG Phera Star plate-reading spectrophotomer. Purified human DHODH was purchased from Proteros (cat. No. PR-0044). Chemicals were purchased from Sigma-Aldrich, Teknova, and Avanti Polar Lipids. Liquid handling was performed using Labcyte Echo and Formulatrix Tempest.
Sequence of Dihydroorotate dehydrogenase (quinone), mitochondrial (Q02127 whole entry): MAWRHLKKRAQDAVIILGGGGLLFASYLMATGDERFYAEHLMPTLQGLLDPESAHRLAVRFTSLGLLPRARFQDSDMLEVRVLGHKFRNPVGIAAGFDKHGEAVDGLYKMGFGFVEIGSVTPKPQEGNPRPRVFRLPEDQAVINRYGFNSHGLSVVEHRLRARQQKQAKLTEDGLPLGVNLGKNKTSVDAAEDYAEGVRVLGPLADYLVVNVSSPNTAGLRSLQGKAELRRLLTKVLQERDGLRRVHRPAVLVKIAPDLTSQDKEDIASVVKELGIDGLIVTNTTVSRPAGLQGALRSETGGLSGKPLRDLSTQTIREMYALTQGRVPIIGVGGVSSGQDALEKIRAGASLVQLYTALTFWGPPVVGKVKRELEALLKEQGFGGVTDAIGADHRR
The compound `Cc1n[nH]c(C(F)(F)F)c1-c1cc(C(C)C)c2cc(-c3nc(C(C)(C)O)n(C)n3)c(F)cn2c1=O` [WO2022070071, Example 7] yielded an IC50 of 2.51 nM.

In the case of `Cc1ccnc(Cl)c1-c1cc(C(C)C)c2cc(-c3nc(C(C)(C)O)n(C)n3)c(F)cn2c1=O` [WO2022070071, Example 9], the half-inhibitory concentration (IC50) worked out at 13 nM.

For `Cc1ccnc(Cl)c1-c1cc(C(C)C)c2cc(-c3cn(C)c(C(C)(C)O)n3)c(F)cn2c1=O` [WO2022070071, Example 8], the midpoint of inhibition, the IC50, lay at 13 nM.

For `Cc1n[nH]c(C(F)(F)F)c1-c1cc(C(C)C)c2cc(-c3cn(C)c(C(C)(C)O)n3)c(F)cn2c1=O` [WO2022070071, Example 6], the IC50 worked out at 4.07 nM.

`Cc1n[nH]c(Cl)c1-c1cc(C(C)C)c2cc(-c3nc(C(C)(C)O)n(C)n3)c(F)cn2c1=O` [WO2022070071, Example 5] yielded an IC50 of 2.1 nM.

In turn, `Cc1ccccc1-c1cc(C(C)C)c2cc(-c3cn(C)c(C(C)(C)O)n3)c(F)cn2c1=O` [WO2022070071, Example 1] yielded an IC50 of 2.11 nM.

In turn, `Cc1n[nH]c(Cl)c1-c1cc(C(C)C)c2cc(-c3cn(C)c(C(C)(C)O)n3)c(F)cn2c1=O` [WO2022070071, Example 4] yielded an IC50 of 2.69 nM. This IC50 and that of the compound before are within 1.5-fold of each other.

The values above are taken from BindingDB's records for patent WO2022070071 (JANSSEN BIOTECH, INC., 2022).
